# According to patent US8669361B2, “Pyrazol-4-yl-heterocyclyl-carboxamide compounds and methods of use” (Genentech, Inc., priority 2010, dated 2014):
# What was measured:
# [1] = molecular target: PIM3 (Homo sapiens (Human), UniProt Q86V86); assay: Pim kinase binding activity, Caliper LC3000 microfluidic peptide phosphorylation assay (Example 901); type: biochemical; details: 55 pM PIM3, 1 μM FAM-peptide, 10 μM ATP, 90 minutes at room temperature; read-out: PIM3 LC3K (KI)
# Method: (§1) PIM-1, -2, and -3 enzymes were generated as fusion proteins expressed in bacteria and purified by IMAC column chromatography (Sun, X., Chiu, J. F., and He, Q. Y. (2005) Expert Rev. Proteomics, 2:649-657). A fluorescent-labeled Pim-specific peptide substrate, was custom synthesized by American Peptide Company (Sunnyvale, Calif.). Reaction Buffer contained 10 mM HEPES, pH 7.2, 10 mM MgCl2, 0.01% Tween 20, 2 mM DTT. Termination Buffer contained 190 mM HEPES, pH 7.2, 0.015% Brij-35, 0.2% Coating Reagent 3 (Caliper Life Sciences, Hopkinton, Mass.), 20 mM EDTA. Separation Buffer contained 100 mM HEPES, pH 7.2, 0.015% Brij-35, 0.1% Coating Reagent 3, 1:200 Coating Reagent 8 (Caliper Life Sciences, Hopkinton, Mass.), 10 mM EDTA and 5% DMSO.
# (§2) PIM reactions were carried out in a final volume of 10 μL per well in a 384-well plate. A standard enzymatic reaction, initiated by the addition of 5 μL 2×ATP and test compound to 5 μL of 2× enzyme and FAM-peptide, contained 20 pM PIM1, 50 pM PIM2, or 55 pM PIM3, 1 μM FAM-peptide, and 10 μM ATP, in Reaction Buffer. After 90 minutes of incubation at room temperature, the phosphorylation reaction was stopped by the addition of 10 μL Termination Buffer. The product and substrate in each independent reaction were separated on a 12-sipper microfluidic chip (Caliper Life Sciences, Hopkinton, Mass.) run on a Caliper LC3000® (Caliper Life Sciences, Hopkinton, Mass.). The separation of product and substrate was optimized by choosing voltages and pressure using Caliper's Optimizer software (Hopkinton, Mass.). The separation conditions used a downstream voltage of −500V, an upstream voltage of −2150V, and a screening pressure of −1.2 psi. The product and substrate fluorophore were excited at 488 nm and detected at 530 nm. Substrate conversion was calculated from the electropherogram using HTS Well Analyzer software (Caliper Life Sciences, Hopkinton, Mass.). Ki values for the test compound were calculated.
# [2] = molecular target: PIM1 (Homo sapiens (Human), UniProt P11309); assay: as above; type: biochemical; details: 20 pM PIM1, 1 μM FAM-peptide, 10 μM ATP, 90 minutes at room temperature; read-out: PIM1 LC3K (KI)
# Sequence of PIM1 (P11309 whole entry): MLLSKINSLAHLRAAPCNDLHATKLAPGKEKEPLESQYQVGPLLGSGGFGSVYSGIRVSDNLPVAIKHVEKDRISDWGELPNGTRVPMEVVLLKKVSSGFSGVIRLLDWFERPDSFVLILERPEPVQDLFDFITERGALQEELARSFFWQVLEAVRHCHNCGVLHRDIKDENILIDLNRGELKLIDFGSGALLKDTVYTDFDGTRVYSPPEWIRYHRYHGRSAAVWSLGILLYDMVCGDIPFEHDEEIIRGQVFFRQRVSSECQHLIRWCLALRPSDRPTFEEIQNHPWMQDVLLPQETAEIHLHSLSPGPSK
# Method: as §1, §2
# [3] = molecular target: PIM2 (Homo sapiens (Human), UniProt Q9P1W9); assay: as above; type: biochemical; details: 50 pM PIM2, 1 μM FAM-peptide, 10 μM ATP, 90 minutes at room temperature; read-out: PIM2 LC3K (KI)
# Sequence of PIM2 (Q9P1W9 whole entry, the tested form may be a part): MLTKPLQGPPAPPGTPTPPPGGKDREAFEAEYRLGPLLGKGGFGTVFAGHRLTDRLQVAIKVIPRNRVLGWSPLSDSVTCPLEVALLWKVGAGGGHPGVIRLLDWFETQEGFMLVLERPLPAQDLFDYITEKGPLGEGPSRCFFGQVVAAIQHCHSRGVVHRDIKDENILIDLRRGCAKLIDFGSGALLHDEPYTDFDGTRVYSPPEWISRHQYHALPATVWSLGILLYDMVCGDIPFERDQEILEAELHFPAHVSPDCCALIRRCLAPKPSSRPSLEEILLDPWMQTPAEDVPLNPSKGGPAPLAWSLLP
# Method: as §1, with “A” for “PIM-1, -2, and -3 enzymes were generated as fusion proteins expressed in bacteria and purified by IMAC column chromatography (Sun, X., Chiu, J. F., and He, Q. Y. (2005) Expert Rev. Proteomics, 2:649-657). A”
# as §2, with “A standard enzymatic reaction, initiated by the addition of 5 μL 2×ATP and test compound to 5 μL of 2× enzyme and FAM-peptide, contained 20 pM PIM1, 50 pM PIM2, or 55 pM PIM3, 1 μM FAM-peptide, and 10 μM ATP, in Reaction Buffer.” left out, “The product and substrate fluorophore were excited at 488 nm and detected at 530 nm.” left out
# [4] = system: BaF3 PIM1 cells; assay: In vitro cell proliferation potency assay, Cell Titer Glo (Example 902); type: cell-based, murine; details: Mus musculus; BaF3 line transfected with PIM1, incubated overnight; read-out: Prolif BaF3 PIM1 (IC50)
# Method: (§3) BaF3 parental line was obtained from the DSMZ repository. BaF3 lines transfected with PIM 1 or PIM2 were generated. Mouse IL-3 was purchased from R&D Systems. G418 was purchased from Clontech. Media for BaF3 parental line contained RPMI, 10% FBS, 2 mM L-Glutamine, 2 ng/mL mIL-3. Media for BaF3 PIM1 & 2 lines contained RPMI, 10% FBS, 2 mM L-Glutamine, […]. Media for MM1.S (multiple myeloma cells) line contained RPMI, 10% FBS, 2 mM L-Glutamine.
# (§4) BaF3, a murine interleukin-3 dependent pro-B cell line, parental cells, BaF3 PIM1 cells, BaF3 PIM2 cells, and MM1.S (multiple myeloma) cells were seeded at 2 k/well, 5 k/well, 5 k/well, and 10 k/well respectively, in a 384-well plate, at 45 μL/well. Test compound was added at 5 μL/well. BaF3 cells (parental and transfected) were incubated overnight, while MM1.S cells were incubated for 72 hours at 37° C., 5% CO2. Cell Titer Glo Reagent (Promega) was added at 50 μL/well, the plates were incubated for 30 minutes, and their luminescence read on an HT Analyst. IC50/EC50 values for the test compound were calculated.
# [5] = system: BaF3 parental cells; assay: as above; type: cell-based, murine; details: Mus musculus; BaF3 parental line, medium with 2 ng/mL mIL-3, incubated overnight; read-out: Prolif BaF3 IL3 (IC50)
# Method: as §3, §4
SMILES,Ki [1] [nM],Ki [2] [nM],Ki [3] [nM],IC50 [4] [nM],IC50 [5] [nM]
"Cn1ncc(NC(=O)c2nc(-c3ccccc3F)sc2N)c1N1CCC[C@H](N)C1 [Example 107, (S)-5-amino-N-(5-(3-aminopiperidin-1-yl)-1-methyl-1H-pyrazol-4-yl)-2-(2-fluorophenyl)thiazole-4-carboxamide]",0.575,1.22,20.1,,
"Cn1ncc(NC(=O)c2nc(-c3ccccc3)ccc2N)c1N1CCC(N)CC1 [Example 109, 3-amino-N-(5-(4-aminopiperidin-1-yl)-1-methyl-1H-pyrazol-4-yl)-6-phenylpicolinamide]",2.63,0.762,41.1,,
"Cn1cc(NC(=O)c2nc(-c3c(F)cccc3F)sc2N)cn1 [Example 102, 5-amino-2-(2,6-difluorophenyl)-N-(1-methyl-1H-pyrazol-4-yl)thiazole-4-carboxamide]",8.8,16,110,,
"Cn1ncc(NC(=O)c2nc(-c3c(F)cccc3F)sc2N)c1NCC1CCNCC1 [Example 105, 5-amino-2-(2,6-difluorophenyl)-N-(1-methyl-5-(piperidin-4-ylmethylamino)-1H-pyrazol-4-yl)thiazole-4-carboxamide]",5.77,4.54,148,,
"Cn1ncc(NC(=O)c2nc(-c3ccccc3F)ccc2N)c1N1CCC[C@@H](N)C1 [Example 112, (R)-3-amino-N-(5-(3-aminopiperidin-1-yl)-1-methyl-1H-pyrazol-4-yl)-6-(2-fluorophenyl)picolinamide]",0.34,0.246,2.49,,
"Cn1ncc(NC(=O)c2nc(-c3ccccc3F)ccc2N)c1N1CCC[C@H](N)CC1 [Example 142, (S)-3-amino-N-(5-(4-aminoazepan-1-yl)-1-methyl-1H-pyrazol-4-yl)-6-(2-fluorophenyl)picolinamide]",0.245,0.368,3.13,,
"Cn1ncc(NC(=O)c2nc(-c3ccccc3F)ccc2N)c1N1CC[C@@H](N)C1 [Example 124, (R)-3-amino-N-(5-(3-aminopyrrolidin-1-yl)-1-methyl-1H-pyrazol-4-yl)-6-(2-fluorophenyl)picolinamide]",3.79,,28.5,,
"Cn1ncc(NC(=O)c2nc(-c3ccccc3F)ccc2N)c1OC1CCNCC1 [Example 116, 3-amino-6-(2-fluorophenyl)-N-(1-methyl-5-(piperidin-4-yloxy)-1H-pyrazol-4-yl)picolinamide]",4.97,4.36,26.2,,
"Cn1ncc(NC(=O)c2nc(Cl)cnc2N)c1N1CCC[C@H](N)C1 [Example 123, (S)-3-amino-N-(5-(3-aminopiperidin-1-yl)-1-methyl-1H-pyrazol-4-yl)-6-chloropyrazine-2-carboxamide]",215,137,587,,

# The next lines start with results.
Ki [1] [nM],Ki [2] [nM],Ki [3] [nM],IC50 [4] [nM],SMILES,IC50 [5] [nM]
24,20,124,,"CCn1ncc(NC(=O)c2nc(-c3ccccc3F)sc2N)c1N1CCC[C@@H](N)CC1 [Example 364, (R)-5-Amino-N-(5-(4-aminoazepan-1-yl)-1-ethyl-1H-pyrazol-4-yl)-2-(2-fluorophenyl)thiazole-4-carboxamide]",
,,,1000,"Cn1ncc(NC(=O)c2nc(-c3ccccc3F)ccc2N)c1N1CCC[C@@H](N)CC1 [Example 145, (R)-3-amino-N-(5-(4-aminoazepan-1-yl)-1-methyl-1H-pyrazol-4-yl)-6-(2-fluorophenyl)picolinamide]",3800
6.12,10.4,185,,"Cn1ncc(NC(=O)c2nc(-c3c(F)cccc3F)sc2N)c1C1CCNCC1 [Example 263, 5-amino-2-(2,6-difluorophenyl)-N-(1-methyl-5-(piperidin-4-yl)-1H-pyrazol-4-yl)thiazole-4-carboxamide]",
2.48,0.897,17.3,,"Cn1ncc(NC(=O)c2ccc(F)c(-c3c(F)cccc3F)n2)c1N1CCC[C@@H](N)CC1 [Example 238, (R)—N-(5-(4-aminoazepan-1-yl)-1-methyl-1H-pyrazol-4-yl)-6-(2,6-difluorophenyl)-5-fluoropicolinamide]",
0.735,0.462,12.5,,"Cn1ncc(NC(=O)c2nc(-c3c(F)cccc3F)sc2N)c1C1CCC(N)CC1 (stereo not drawn) [Example 369, 5-amino-N-(5-(4-aminocyclohexyl)-1-methyl-1H-pyrazol-4-yl)-2-(2,6-difluorophenyl)thiazole-4-carboxamide]",
,,,377,"Cn1ncc(NC(=O)c2nc(-c3ccccc3F)cnc2N)c1N1CCC[C@H](N)CC1 [Example 143, (S)-3-amino-N-(5-(4-aminoazepan-1-yl)-1-methyl-1H-pyrazol-4-yl)-6-(2-fluorophenyl)pyrazine-2-carboxamide]",1100
0.176,0.096,4.37,,"CN[C@H]1CCCN(c2c(NC(=O)c3nc(-c4c(F)cccc4F)sc3N)cnn2C)CC1 [Example 328, (S)-5-amino-2-(2,6-difluorophenyl)-N-(1-methyl-5-(4-(methylamino)azepan-1-yl)-1H-pyrazol-4-yl)thiazole-4-carboxamide]",
19,11.9,38,,"Nc1sc(-c2c(F)cccc2F)nc1C(=O)Nc1cnn(CCF)c1 [Example 353, 5-amino-2-(2,6-difluorophenyl)-N-(1-(2-fluoroethyl)-1H-pyrazol-4-yl)thiazole-4-carboxamide]",
34.2,22,581,,"Cn1ncc(NC(=O)c2cncc(-c3ccccc3F)n2)c1N1CCC[C@H](N)CC1 [Example 220, (S)—N-(5-(4-aminoazepan-1-yl)-1-methyl-1H-pyrazol-4-yl)-6-(2-fluorophenyl)pyrazine-2-carboxamide]",
5.26,7.65,201,,"CN1CCC(c2c(NC(=O)c3nc(-c4c(F)cccc4F)sc3N)cnn2C)CC1 [Example 231, 5-amino-2-(2,6-difluorophenyl)-N-(1-methyl-5-(1-methylpiperidin-4-yl)-1H-pyrazol-4-yl)thiazole-4-carboxamide]",
